Data: PMC8058344, “ARIH1 signaling promotes anti-tumor immunity by targeting PD-L1 for proteasomal degradation” (Nature Communications, 2021)
pIC50: −log10 of the molar value.

Legend:
KDR(VEGFR2) = KDR(VEGFR2) (Homo sapiens, UniProt P35968); assay: In vitro kinase specificity profiling; type: biochemical
CDK6 = CDK6 (Homo sapiens, UniProt Q00534); assay: In vitro kinase specificity profiling; type: biochemical
GSK3α [1] = molecular target: GSK3α (Homo sapiens, UniProt P49840); assay: In vitro kinase specificity profiling for GSK3α; type: biochemical
EGFR T790M = EGFR T790M (Homo sapiens, UniProt P00533, T790M); assay: In vitro kinase specificity profiling; type: biochemical
GSK3α [2] = assay: Immunoblots of p-GSK3α in H1975 cells; type: cell-based, human; details: 10 μM, 24 h, compared to Gefitinib and AZD9291
Protocol: For western blot analysis, cells were collected and washed with PBS, then lysed in radioimmunoprecipitation assay (RIPA) buffer (1% Triton X-100, 100 mM Tris-HCl pH 8.8, 100 mM NaCl, 0.5 mM EDTA). After incubation on ice for 30 min, the lysates were centrifuged at 12,000 × g for 10 min at 4 °C. The supernatant was collected and the protein concentration was measured by bicinchoninic acid reaction. Protein samples were added with 2× loading buffer and heated at 100 °C for 10 min, separated with SDS-polyacrylamide gel electrophoresis (SDS-PAGE), transferred onto polyvinylidene difluoride membranes, and blocked with 5% non-fat milk in Phosphate Buffered Saline with 0.1% Tween-20 (PBST) for 1 h at room temperature. The membranes were probed with the corresponding primary antibodies at 4 °C overnight and horseradish peroxidase-conjugated secondary antibodies at room temperature for 1 h. Signals were detected using chemiluminescence reagents (#4AW001-500, 4A649 Biotech, Co.).
Flag-EV Flag-PD-L1 Flag-EV Flag-PD-L1
43 Flag-PD-L1-TM Flag-PD-L1-TM
GSK3 concenseus phosphorylation motif:S/TXXX S/T EGFR 180 […]
Supplementary Figure 4. […] Quantification for the mean area (MA) of PD-L1/GSK3α (n = 50) or PD-L1/GSK3β (n = 44-50) PLA speckles are indicated by scattergram. […]

HER2 = HER2 (Homo sapiens, UniProt P04626); assay: In vitro kinase specificity profiling; type: biochemical
PDGFRa = PDGFRa (Homo sapiens, UniProt P16234); assay: In vitro kinase specificity profiling; type: biochemical
EGFR = EGFR (Homo sapiens, UniProt P00533); assay: In vitro kinase specificity profiling; type: biochemical; details: EGFR wild-type
Sequence of EGFR (P00533 25-1210): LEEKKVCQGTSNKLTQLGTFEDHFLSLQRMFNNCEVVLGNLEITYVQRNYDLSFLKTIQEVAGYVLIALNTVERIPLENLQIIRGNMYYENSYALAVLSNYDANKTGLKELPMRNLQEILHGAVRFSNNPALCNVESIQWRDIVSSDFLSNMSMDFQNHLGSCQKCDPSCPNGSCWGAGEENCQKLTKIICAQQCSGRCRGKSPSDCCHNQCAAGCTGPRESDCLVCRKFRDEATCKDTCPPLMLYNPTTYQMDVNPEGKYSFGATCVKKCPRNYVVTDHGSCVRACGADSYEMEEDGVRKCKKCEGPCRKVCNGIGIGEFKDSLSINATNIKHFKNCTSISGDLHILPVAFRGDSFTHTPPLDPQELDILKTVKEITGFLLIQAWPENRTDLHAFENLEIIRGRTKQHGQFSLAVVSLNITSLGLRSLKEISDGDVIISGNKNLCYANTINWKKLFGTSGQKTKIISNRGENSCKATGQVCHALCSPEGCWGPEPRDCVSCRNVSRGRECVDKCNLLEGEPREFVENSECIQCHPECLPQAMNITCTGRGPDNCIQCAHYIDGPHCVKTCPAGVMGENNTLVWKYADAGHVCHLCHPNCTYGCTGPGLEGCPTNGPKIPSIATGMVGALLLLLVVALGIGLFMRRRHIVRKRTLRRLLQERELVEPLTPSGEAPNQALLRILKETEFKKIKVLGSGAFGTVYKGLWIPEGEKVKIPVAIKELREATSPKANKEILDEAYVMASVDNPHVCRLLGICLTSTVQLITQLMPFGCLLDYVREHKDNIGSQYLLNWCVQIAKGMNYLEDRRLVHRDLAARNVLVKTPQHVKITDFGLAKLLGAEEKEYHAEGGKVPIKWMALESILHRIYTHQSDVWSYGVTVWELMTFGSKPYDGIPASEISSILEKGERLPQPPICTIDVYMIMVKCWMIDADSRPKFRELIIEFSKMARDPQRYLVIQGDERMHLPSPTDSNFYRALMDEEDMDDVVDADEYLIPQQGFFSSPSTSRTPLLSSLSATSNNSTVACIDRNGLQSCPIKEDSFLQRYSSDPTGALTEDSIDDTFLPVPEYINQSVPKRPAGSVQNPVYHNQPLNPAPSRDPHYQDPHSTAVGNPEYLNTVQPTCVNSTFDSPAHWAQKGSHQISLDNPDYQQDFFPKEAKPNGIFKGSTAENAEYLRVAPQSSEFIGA

Sequence of GSK3α (Homo sapiens, UniProt P49840) (P49840 whole entry): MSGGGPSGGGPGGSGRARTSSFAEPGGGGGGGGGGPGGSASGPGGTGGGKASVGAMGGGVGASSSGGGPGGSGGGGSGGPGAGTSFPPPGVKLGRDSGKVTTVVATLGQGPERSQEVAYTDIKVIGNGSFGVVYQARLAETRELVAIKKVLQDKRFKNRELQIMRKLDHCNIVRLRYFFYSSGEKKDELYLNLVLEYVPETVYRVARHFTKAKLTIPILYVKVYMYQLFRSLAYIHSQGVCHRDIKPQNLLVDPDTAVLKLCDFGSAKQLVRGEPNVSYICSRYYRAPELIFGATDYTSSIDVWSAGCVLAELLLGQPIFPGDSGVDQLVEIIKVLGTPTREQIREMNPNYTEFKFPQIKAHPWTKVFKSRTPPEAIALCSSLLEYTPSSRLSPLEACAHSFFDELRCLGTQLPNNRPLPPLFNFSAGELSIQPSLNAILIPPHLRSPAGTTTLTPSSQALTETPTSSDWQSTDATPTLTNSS
Sequence of HER2 (P04626 23-1255, species assumed): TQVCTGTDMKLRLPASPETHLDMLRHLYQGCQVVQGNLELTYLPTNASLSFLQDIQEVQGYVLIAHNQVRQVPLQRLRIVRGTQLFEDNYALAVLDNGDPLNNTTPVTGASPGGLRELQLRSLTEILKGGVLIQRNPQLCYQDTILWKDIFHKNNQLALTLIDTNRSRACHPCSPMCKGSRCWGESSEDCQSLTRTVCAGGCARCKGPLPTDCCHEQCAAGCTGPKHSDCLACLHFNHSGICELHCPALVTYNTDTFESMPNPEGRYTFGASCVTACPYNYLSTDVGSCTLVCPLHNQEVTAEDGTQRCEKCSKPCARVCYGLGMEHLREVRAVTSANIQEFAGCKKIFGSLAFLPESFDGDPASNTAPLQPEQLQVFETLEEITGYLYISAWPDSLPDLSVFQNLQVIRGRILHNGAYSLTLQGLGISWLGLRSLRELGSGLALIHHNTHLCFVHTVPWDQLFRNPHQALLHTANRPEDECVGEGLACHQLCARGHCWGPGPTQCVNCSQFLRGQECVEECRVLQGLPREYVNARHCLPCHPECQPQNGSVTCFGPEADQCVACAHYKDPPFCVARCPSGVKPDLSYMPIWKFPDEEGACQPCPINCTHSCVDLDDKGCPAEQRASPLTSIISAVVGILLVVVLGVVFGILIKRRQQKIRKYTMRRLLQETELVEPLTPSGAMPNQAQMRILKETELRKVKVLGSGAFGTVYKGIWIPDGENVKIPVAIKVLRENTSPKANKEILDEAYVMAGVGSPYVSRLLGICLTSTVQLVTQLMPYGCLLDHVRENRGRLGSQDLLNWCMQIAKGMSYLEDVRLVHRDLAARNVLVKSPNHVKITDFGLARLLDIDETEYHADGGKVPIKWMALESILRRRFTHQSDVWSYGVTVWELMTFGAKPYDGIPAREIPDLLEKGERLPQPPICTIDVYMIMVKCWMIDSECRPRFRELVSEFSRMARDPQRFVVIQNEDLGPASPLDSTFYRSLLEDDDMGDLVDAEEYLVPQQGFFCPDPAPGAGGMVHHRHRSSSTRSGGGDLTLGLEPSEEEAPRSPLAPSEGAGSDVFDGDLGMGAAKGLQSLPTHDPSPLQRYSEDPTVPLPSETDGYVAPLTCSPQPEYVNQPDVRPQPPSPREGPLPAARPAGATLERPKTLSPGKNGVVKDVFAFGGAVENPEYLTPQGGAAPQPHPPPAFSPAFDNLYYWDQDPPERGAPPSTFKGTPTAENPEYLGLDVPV
Sequence of EGFR T790M (P00533 25-1210 T790M): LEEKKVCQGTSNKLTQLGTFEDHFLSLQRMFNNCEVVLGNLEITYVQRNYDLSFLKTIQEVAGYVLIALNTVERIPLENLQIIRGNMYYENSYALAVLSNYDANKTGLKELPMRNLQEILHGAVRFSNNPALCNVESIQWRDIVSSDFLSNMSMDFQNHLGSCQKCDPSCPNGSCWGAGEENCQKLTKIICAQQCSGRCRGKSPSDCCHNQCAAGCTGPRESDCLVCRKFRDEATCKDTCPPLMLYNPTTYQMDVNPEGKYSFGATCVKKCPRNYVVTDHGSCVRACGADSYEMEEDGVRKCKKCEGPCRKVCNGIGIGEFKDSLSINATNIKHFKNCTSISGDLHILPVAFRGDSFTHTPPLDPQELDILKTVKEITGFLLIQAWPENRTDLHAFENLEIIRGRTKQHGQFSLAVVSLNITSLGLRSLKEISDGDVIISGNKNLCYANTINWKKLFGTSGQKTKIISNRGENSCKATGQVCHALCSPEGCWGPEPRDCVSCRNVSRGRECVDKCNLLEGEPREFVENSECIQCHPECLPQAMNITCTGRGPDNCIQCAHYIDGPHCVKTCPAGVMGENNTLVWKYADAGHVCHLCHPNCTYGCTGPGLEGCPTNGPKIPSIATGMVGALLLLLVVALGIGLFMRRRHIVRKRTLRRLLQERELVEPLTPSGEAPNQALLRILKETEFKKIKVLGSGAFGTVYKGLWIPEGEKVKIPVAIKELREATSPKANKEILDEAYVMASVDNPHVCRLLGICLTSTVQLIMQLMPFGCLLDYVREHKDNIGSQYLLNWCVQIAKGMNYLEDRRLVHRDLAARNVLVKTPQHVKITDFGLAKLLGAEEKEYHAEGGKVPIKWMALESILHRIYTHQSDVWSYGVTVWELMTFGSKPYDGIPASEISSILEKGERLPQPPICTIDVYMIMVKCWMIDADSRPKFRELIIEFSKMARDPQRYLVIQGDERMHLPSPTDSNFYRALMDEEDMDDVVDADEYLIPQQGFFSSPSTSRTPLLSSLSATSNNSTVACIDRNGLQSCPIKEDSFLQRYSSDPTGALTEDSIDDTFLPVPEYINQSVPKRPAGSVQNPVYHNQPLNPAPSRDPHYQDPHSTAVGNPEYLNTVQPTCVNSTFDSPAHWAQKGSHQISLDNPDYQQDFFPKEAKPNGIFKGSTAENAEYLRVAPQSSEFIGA
Sequence of CDK6 (Q00534 whole entry, species assumed): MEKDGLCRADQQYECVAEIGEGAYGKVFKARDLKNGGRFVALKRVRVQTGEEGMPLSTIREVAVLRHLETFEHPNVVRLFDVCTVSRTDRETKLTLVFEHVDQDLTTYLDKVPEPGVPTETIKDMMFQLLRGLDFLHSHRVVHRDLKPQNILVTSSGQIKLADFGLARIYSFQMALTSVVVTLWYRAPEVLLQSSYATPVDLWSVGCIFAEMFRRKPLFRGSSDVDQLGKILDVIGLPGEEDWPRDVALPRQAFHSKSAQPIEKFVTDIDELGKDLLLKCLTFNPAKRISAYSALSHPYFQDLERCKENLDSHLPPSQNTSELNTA
Sequence of CDK6 (P30281 whole entry partner, species assumed): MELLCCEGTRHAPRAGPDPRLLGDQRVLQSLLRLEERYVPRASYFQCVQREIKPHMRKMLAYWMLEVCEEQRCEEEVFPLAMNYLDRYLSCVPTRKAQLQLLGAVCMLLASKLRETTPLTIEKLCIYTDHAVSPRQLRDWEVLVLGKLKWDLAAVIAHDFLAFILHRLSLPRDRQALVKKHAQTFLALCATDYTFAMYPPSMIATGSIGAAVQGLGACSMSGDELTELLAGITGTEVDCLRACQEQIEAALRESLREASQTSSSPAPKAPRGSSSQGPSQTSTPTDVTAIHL

pIC50 (KDR(VEGFR2)): 5.28 | pIC50 (CDK6): < 5.00 | pIC50 (GSK3α [1]; as worded in response to reviewers): < 4.40 | pIC50 (GSK3α [1]; single independent tests): < 4.40 | pIC50 (EGFR T790M): > 9.30 | pIC50 (HER2): 6.83 | pIC50 (PDGFRa): 5.41 | pIC50 (EGFR): 8.05
Structure (SMILES): C=CC(=O)Nc1cccc(Nc2nc(Nc3ccc(N4CCN(C)CC4)nc3OC)ncc2C(F)(F)F)c1 [ES-072]
activation effect on GSK3α (loss of the inhibitory phosphorylation of GSK3α) (GSK3α [2]): higher activation effect
